Test results published in patent US11464749B2, “Bismuth-thiol compositions and methods of use” (Microbion Corporation, priority 2018, dated 2022).
Values after ≈ are worked out from the molar mass of the structure shown. Values joined by “and” are separate entries in the source; they are usually repeats but may differ in a detail not shown here. Equal entries are not always repeated. Where two headings read alike, the source gives them in different places.

Tests used:
Candida auris = assay: Broth microdilution antifungal susceptibility (Example 13); type: cell-based; conditions: Candidozyma auris
[1] = test system: beta-hemolytic streptococci; assay: Broth microdilution MIC (Example 11); conditions: read-out: MIC values
C. parapsilosis = assay: Broth microdilution MIC, yeast (Example 11); type: cell-based
S. aureus ATCC 29213 [2] = assay: Broth microdilution MIC, ATCC QC organism (Example 12); conditions: Staphylococcus aureus, ATCC29213
C. tropicalis = assay: Broth microdilution MIC, yeast (Example 11); type: cell-based; conditions: Candida tropicalis, FLU^R
M. avium = assay: MIC against CF bacterial strains (Example 5); type: cell-based, Mycobacterium avium
Description: A range of CF-isolated strains of Mycobacterium avium and Mycobacterium abscessus were included; which allows for understanding of the activity against non-tubercular Mycobacteria (NTM). Two distinct bismuth-thiol compounds were evaluated, including BisEDT and BisBDT. […] The CF-isolates of greater clinical relevance, including both M abscessus spp. and Burkholderia spp., were both consistently found to be much more susceptible to BisEDT and BisBDT.

S. aureus ATCC 29213 [3] = conditions: control strain ATCC 29213; per CLSI M100-S24 or provided by Microbion; cited from earlier work
anaerobes = assay: Agar dilution MIC (Example 11); type: cell-based; conditions: read-out: MIC values
[4] = test system: vancomycin-intermediate Staphylococcus aureus (VISA); assay: Broth microdilution MIC (Example 12); conditions: Staphylococcus aureus
[5] = Face mask inhalation in beagle dogs: hematology; type: in vivo; conditions: inhalation Day 0 and Day 7, successive samplings
Description: Once adequately conditioned to the restraint device and face-masks, the animals are individually exposed to the test article aerosols. Animals receive a single face-mask inhalation exposure in a ramp study design to test article aerosols for up to 60 min. Animal observations during and post exposure determine the tolerance of inhaled BisEDT aerosols.
Group 1 (vehicle) are exposed to a vehicle atmosphere for 30 minutes. Group 2 (50 μg/kg) are exposed to BisEDT for 30 minutes. Target concentrations and exposure durations for Groups 3-5 are based on the presence of any toxicity via clinical observations or gross necropsy findings. In each of Groups 3-5, if no adverse clinical signs of toxicity are observed, the next groups' exposure will be conducted at a higher target dose. If adverse clinical signs of toxicity are observed, the next groups' exposure will be conducted at a lower target dose. This approach is repeated for all BisEDT doses. The final documented exposure duration is the maximum tolerated dose or the maximum feasible dose.
The aerosol generation system couples a commercially available compressed air jet nebulizer to a chamber that allows the aerosols to transition to the animals. […]
Hematology samples are analyzed by automated (ADVIA™ 120 Hematology System, Siemens Medical Solutions Diagnostics, Tarrytown, N.Y.) analyses. Disposition will be recorded on the sample processing form.

[6] = Phase 1 human clinical studies, topical tolerability; type: in vivo; conditions: humans
P. aeruginosa = assay: Broth microdilution MIC (Example 10); conditions: initial MIC testing
Burkholderia spp. = assay: organism not typed; type: cell-based; conditions: during FIC testing; B. multivorans isolate 1795 (MEM-I, CIP-R)

CC(S)C(C)S.[Bi] (stereo not shown) [BisBDT, bismuth-2,3-butanedithiol]
MIC (Candida auris; read-out: MIC0 (complete inhibition), isolate MMX 9862 (Susceptible)): 1 µg/mL
MIC (Candida auris; read-out: MIC0 (complete inhibition), isolate MMX 9863 (FLU-R, VORI-R)): 2 µg/mL
MIC (Candida auris; read-out: MIC0 (complete inhibition), isolate MMX 9864 (FLU-R, VORI-R)): 1 µg/mL
MIC (Candida auris; read-out: MIC0 (complete inhibition), isolate MMX 9865 (FLU-R, VORI-R)): 2 µg/mL
MIC (Candida auris; read-out: MIC0 (complete inhibition), isolate MMX 9866 (FLU-R, VORI-R)): 2 µg/mL
MIC (Candida auris; read-out: MIC0 (complete inhibition), isolate MMX 9867 (FLU-R, VORI-R)): 2 µg/mL
MIC (Candida auris; read-out: MIC0 (complete inhibition), isolate MMX 9868 (FLU-R, VORI-R)): 4 µg/mL
MIC (Candida auris; read-out: MIC0 (complete inhibition), isolate MMX 9869 (FLU-R, VORI-R)): 4 µg/mL
MIC (Candida auris; read-out: MIC0 (complete inhibition), isolate MMX 9870 (FLU-R, VORI-R)): 2 µg/mL
MIC (Candida auris; read-out: MIC0 (complete inhibition), isolate MMX 9871 (Susceptible)): 2 µg/mL
MIC (Candida auris; read-out: MIC2 (50% inhibition), isolate MMX 9862 (Susceptible)): 0.5 µg/mL
MIC (Candida auris; read-out: MIC2 (50% inhibition), isolate MMX 9863 (FLU-R, VORI-R)): 1 µg/mL
MIC (Candida auris; read-out: MIC2 (50% inhibition), isolate MMX 9864 (FLU-R, VORI-R), result after 48 hr incubation (insufficient growth at 24 hr)): 1 µg/mL
MIC (Candida auris; read-out: MIC2 (50% inhibition), isolate MMX 9865 (FLU-R, VORI-R)): 1 µg/mL
MIC (Candida auris; read-out: MIC2 (50% inhibition), isolate MMX 9866 (FLU-R, VORI-R)): 1 µg/mL
MIC (Candida auris; read-out: MIC2 (50% inhibition), isolate MMX 9867 (FLU-R, VORI-R)): 1 µg/mL
MIC (Candida auris; read-out: MIC2 (50% inhibition), isolate MMX 9868 (FLU-R, VORI-R)): 1 µg/mL
MIC (Candida auris; read-out: MIC2 (50% inhibition), isolate MMX 9869 (FLU-R, VORI-R)): 1 µg/mL
MIC (Candida auris; read-out: MIC2 (50% inhibition), isolate MMX 9870 (FLU-R, VORI-R)): 1 µg/mL
MIC (Candida auris; read-out: MIC2 (50% inhibition), isolate MMX 9871 (Susceptible)): 1 µg/mL
MIC [1]: 0.03 to 2 µg/mL
MIC (C. parapsilosis; C. parapsilosis MMX 7555, FLU^R, 24 hr): 0.25 µg/mL
MIC (C. parapsilosis; C. parapsilosis MMX 7555, FLU^R, 48 hr): 0.5 µg/mL
MIC (C. parapsilosis; Lodderomyces parapsilosis, 24 h): 0.25 µg/mL
MIC (C. parapsilosis; Lodderomyces parapsilosis, 48 h): 0.5 µg/mL
MIC (C. parapsilosis; Lodderomyces parapsilosis, ATCC22019, 24 h): 0.5 µg/mL
MIC (C. parapsilosis; Lodderomyces parapsilosis, ATCC22019, 48 h): 1 µg/mL
MIC (S. aureus ATCC 29213 [2]): 0.12 µg/mL
MIC (C. tropicalis; 24 h, C. tropicalis MMX 7247): 4 µg/mL
MIC (C. tropicalis; 24 h, C. tropicalis MMX 7248): 4 µg/mL
MIC (C. tropicalis; 24 h, C. tropicalis MMX 7360): 2 µg/mL
MIC (C. tropicalis; 48 h, C. tropicalis MMX 7247): 4 µg/mL
MIC (C. tropicalis; 48 h, C. tropicalis MMX 7248): 8 µg/mL
MIC (C. tropicalis; 48 h, C. tropicalis MMX 7360): 2 µg/mL
MIC (M. avium; Mycobacterium avium): > 16 µg/mL
MIC (M. avium; strain MAC101, MAC reference strain, blood isolate from HIV patient): 1 µg/mL
Expected MIC: goal (acceptable range) (S. aureus ATCC 29213 [3]): 0.25 mcg/mL and 0.25 (0.12-0.5) mcg/mL
MIC (anaerobes): 1 to 4 µg/mL
MIC ([4]; NRS1 / VISA): 0.12 µg/mL
MIC ([4]; NRS2 / VISA): ≤ 0.06 µg/mL
MIC ([4]; NRS3 / VISA): 0.25 µg/mL
MIC ([4]; NRS4 / VISA): 0.25 µg/mL
MIC ([4]; NRS13 / VISA): 0.12 µg/mL
MIC ([4]; NRS18 / VISA): 0.25 µg/mL
MIC ([4]; NRS22 / VISA): 0.25 µg/mL
MIC ([4]; NRS24 / VISA): 1 µg/mL
MIC ([4]; NRS27 / VISA): 0.25 µg/mL

C1C[S][Bi]([S]CC[S][Bi]2[S]CC[S]2)[S]1 [BisEDT, bismuth-1,2-ethanedithiol]
LUC ([5]; dog Group 2, lung deposited 55-56 ug/kg, lines = animal 2001, 2002 or Grp Avg): 0.01 ^3/uL and 0.02 ^3/uL
LUC ([5]; dog Group 4, lung deposited 176-197 ug/kg, lines = animal 4001-4004 or Grp Avg): 0.01 ^3/uL and 0.02 ^3/uL
concentration well-tolerated when administered topically ([6]; 6 hours): up to 2500 μg/cm^2
concentration tolerated when administered topically ([6]; over 21 days continuous exposure, normal and abraded skin): up to 75 μg/cm^2

C[C@@H](O)[C@H]1C(=O)N2C(C(=O)O)=C(S[C@@H]3CN[C@H](C(=O)N(C)C)C3)[C@H](C)[C@H]12 [MEM]
MIC (P. aeruginosa; P. aeruginosa isolate 103): 1 µg/mL (≈ 2.61 µM)
MIC (P. aeruginosa; P. aeruginosa isolate 1497 (TOB-R, AMK-R, CIP-I, AZT-R, COL-R)): 0.06 µg/mL (≈ 0.156 µM)
MIC (P. aeruginosa; P. aeruginosa isolate 1530 (TOB-R, AMK-R, CIP-R)): 0.5 µg/mL (≈ 1.3 µM)
MIC (P. aeruginosa; P. aeruginosa isolate 1553 (TOB-R, AMK-R, CIP-R)): 0.5 µg/mL (≈ 1.3 µM)
MIC (P. aeruginosa; P. aeruginosa isolate 6322 (MEM-R, TOB-R, AMK-R, CIP-R, AZT-R)): 16 µg/mL (≈ 41.7 µM)
MIC (P. aeruginosa; P. aeruginosa isolate 6977 (MEM-I, TOB-R, CIP-R, AZT-I)): 4 µg/mL (≈ 10.4 µM)
MIC (P. aeruginosa; P. aeruginosa isolate 7745 (MEM-R, CIP-R, AZT-R)): 16 µg/mL (≈ 41.7 µM)
MIC (P. aeruginosa; P. aeruginosa isolate 7754 (MEM-R, TOB-R, CIP-R, AZT-I)): 32 µg/mL (≈ 83.4 µM)
MIC (P. aeruginosa; P. aeruginosa isolate 7762 (MEM-I, CIP-I)): 4 µg/mL (≈ 10.4 µM)
MIC (P. aeruginosa; P. aeruginosa isolate 7871 (MEM-R, AZT-I)): 8 µg/mL (≈ 20.9 µM)
MIC (P. aeruginosa; P. aeruginosa isolate 7874): 1 µg/mL (≈ 2.61 µM)
MIC (P. aeruginosa; P. aeruginosa isolate 7886 (MEM-R, CIP-R, AZT-R)): 32 µg/mL (≈ 83.4 µM)
MIC (P. aeruginosa; P. aeruginosa isolate 8797 (MEM-R, TOB-R, AMK-R, CIP-R, AZT-R, COL-R)): 32 µg/mL (≈ 83.4 µM)
MIC (P. aeruginosa; P. aeruginosa isolate 8798 (MEM-R, TOB-R, AMK-R, CIP-R, AZT-R, COL-R)): 64 µg/mL (≈ 167 µM)
MIC (P. aeruginosa; P. aeruginosa isolate 9108 (CIP-R, AZT-I)): 0.5 µg/mL (≈ 1.3 µM)
MIC (Burkholderia spp.): 4 µg/mL
